PubChem BioAssay AID1963426 (Molecular Pharmacology Branch, DTP, NCI, 2024)
Where “and” joins values, the source holds several entries; their conditions need not be identical. Equal values may be shown once.

Tested on: 186277-243-T-J2-PDC complex spheroid growth, % test/control
Experiment: Anticancer human tumor 186277-243-T-J2-PDC patient-derived colon adenocarcinoma cell line growth inhibition [Asc]
Conditions: for viability, T/C: stronger effect = lower value
Protocol: Multicellular complex tumor spheroid response to apoptosis pathway targeting inhibitors Alrizomadlin, Pelcitoclax, and Dasminapant in combination with a variety of drugs and investigational agents in selected tumor cell lines
The MDM2 inhibitor alrizomadlin, the Bcl-2/Bcl-xL inhibitor pelcitoclax, and the IAPs inhibitor dasminapant were evaluated both individually and in combination with standard of care and investigational anticancer small molecules within a complex spheroid model of solid tumors. . Complex spheroids include a stromal component modeled by human endothelial cells (HUVEC) and fibroblasts modeled by human mesenchymal stem cells (MSCs). The concentration ranges selected for each drug and investigational agent were based upon clinically achievable concentrations if the clinical Cmax of the agent was known.
Compounds. The drugs and investigational agents: alrizomadlin (APG-115; NSC831270), pelcitoclax (APG-1252; NSC835773), dasminapant (APG-1387;NSC834197), TAK-243 (NSC785004), copanlisib (NSC809693), olaparib (NSC753686), talazoparib (NSC767125), cobimetinib (NSC 768068), eltanexor (KPT-8602, NSC 794443), abemaciclib (NSC 768073), sotorasib (NSC818433), adagrasib (NSC 831453), MRTX-1133 (NSC 836407), Iadademestat (ORY1001, NSC 806812), and RMC-4630 (NSC839698), were obtained from the NCI Developmental Therapeutics Program Chemical Repository. The FDA-approved anticancer drug set is available from the Developmental Therapeutics Program at https://dtp.cancer.gov/organization/dscb/obtaining/available plates.htm. […] The stock solutions were prepared in dimethyl sulfoxide (DMSO, Sigma-Aldrich, St. Louis, MO, cat. D2650) at 800-fold the tested concentration and stored at -70 degrees C prior to their use. All drugs and investigational agents were tested over a range starting from a high concentration at or near the clinical Cmax and decreasing in half-log increments. If the clinical Cmax for an agent had not been determined, the highest concentration tested was 10 microM.
The patient-derived cancer (PDC) cell lines include five colon adenocarcinomas: 186277-243-T-J2-PDC, 616215-338-R-J1-PDC, 439559-082-T-J2-PDC, 463943-066-T-J2-PDC, and 519858-162-T-J1-PDC; three pancreatic carcinomas: 323965-272-R-J2-PDC, 521955-158-R6-J3-PDC, and 521955-158-R2-J5-PDC; two uterine sarcomas: 327498-152-R-J2-PDC and 993429-296-R-J1-PDC; two rhabdomyosarcomas: 755483-174-R-J1-PDC and 772245-204-R-J1-PDC; two soft tissue sarcomas: 126254-015-R-J1-PDC and 494315-158-R-J1-PDC; two malignant fibrous histiocytomas: 317291-083-R-J1-PDC and 596521-263-R-J1-PDC; two breast carcinomas: 171881-019-R-J1-PDC and 885512-296-R-J2-PDC; and one ovarian carcinoma: 6556581-035-R-J-PDC were obtained from the NCI PDMR, (https://pdmr.cancer.gov). The established cell lines HSSY-2 synovial sarcoma (RRID:CVCL 8719), SYO-1 synovial sarcoma (RRID:CVCL_7146), MPNST malignant peripheral neural sheath tumor were obtained from the Sloan Kettering Institute. The following established cell lines were purchased from the American Type Culture Collection (ATCC, Manassas, VA), Sor the received from the NCI repository:, PANC-1 pancreatic carcinoma (CRL-1469, RRID:CVCL_0480), OVCAR-5 ovarian carcinoma (RRID:CVCL_1628), OVCAR-8 ovarian carcinoma (RRID:CVCL_1629), , MCF-7 breast carcinoma (CRL-12584, RRID:CVCL_0031), MDA-MB-231 breast carcinoma (CRL-12532, RRID:CVCL_0062), NCI-H1876 small cell lung carcinoma (CRL-5902, RRID:CVCL_1503), NCI-H510A small cell lung carcinoma (HTB-184, RRID:CVCL_1565), NCI-H1417 (CRL-5869, RRID:CVCL_1469), and NCI-H196 small cell lung carcinoma (CRL-5823, RRID:CVCL_1509). Dr. Peter Houghton (Greehey Children's Cancer Research Institute, University of Texas Health Science Center, San Antonio, TX) provided Rh-18 rhabdomyosarcoma (RRID:CVCL_1659). Pooled donor human umbilical vein endothelial cells (HUVEC, Lonza, cat. CC-2519) and human mesenchymal stem cells (hMSC, Lonza, cat. PT-2501) were purchased from Lonza (Walkersville, MD).
Cell Culture. […]

[1] = curve of first compound, second compound 0.1 µM
[2] = curve of first compound, second compound 0.316 µM
[3] = curve of first compound, second compound 1 µM
[4] = second compound 0.1 µM, first compound 0.0316 µM
[5] = second compound 0.1 µM, first compound 0.1 µM
[6] = second compound 0.316 µM, first compound 0.0316 µM
[7] = second compound 0.316 µM, first compound 0.1 µM
[8] = second compound 1 µM, first compound 0.0316 µM
[9] = second compound 1 µM, first compound 0.1 µM
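Further: spheroids exposed to agents for 7 days.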
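Wherever viability, T/C is given: 100% = DMSO vehicle control wells.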

Work on C#Cc1c(F)ccc2cc(O)cc(-c3ncc4c(N5CC6CCC(C5)N6)nc(OCC56CCCN5CC(F)C6)nc4c3F)c12 (centres undefined) + CNC(C)C(=O)NC1CN(S(=O)(=O)c2cccc(S(=O)(=O)N3CCC4CCC(C(=O)NC(c5ccccc5)c5ccccc5)N4C(=O)C(NC(=O)C(C)NC)C3)c2)CCC2CCC(C(=O)NC(c3ccccc3)c3ccccc3)N2C1=O yielded an IC50 (curve of first compound, second compound 0.01 µM) of 0.571 µM, an IC50 (curve of first compound, second compound 0.0316 µM) of 0.56 µM and an IC50 [1] of 0.452 µM. The IC50 [2] was 0.313 µM, the IC50 [3] was 0.23 µM and the viability, T/C (second compound 0.01 µM, first compound 0.0316 µM) was 110%. For the same compound, the viability, T/C (second compound 0.01 µM, first compound 0.1 µM) was 110%, the viability, T/C (second compound 0.01 µM, first compound 0.316 µM) was 68.6% and the viability, T/C (second compound 0.01 µM, first compound 1 µM) was 31.6%. The viability, T/C (second compound 0.01 µM, first compound 3.16 µM) was 18.1%, the viability, T/C (second compound 0.01 µM, first compound 10 µM) was 10.9% and the viability, T/C (second compound 0.0316 µM, first compound 0.0316 µM) was 119%. For the same compound, the viability, T/C (second compound 0.0316 µM, first compound 0.1 µM) was 98.4%, the viability, T/C (second compound 0.0316 µM, first compound 0.316 µM) was 72.2% and the viability, T/C (second compound 0.0316 µM, first compound 1 µM) was 27.7%. It also gave a viability, T/C (second compound 0.0316 µM, first compound 3.16 µM) of 16.8%, a viability, T/C (second compound 0.0316 µM, first compound 10 µM) of 9.61% and a viability, T/C [4] of 111%. The viability, T/C [5] was 99.9%, the viability, T/C (second compound 0.1 µM, first compound 0.316 µM) was 61% and the viability, T/C (second compound 0.1 µM, first compound 1 µM) was 24.6%. The viability, T/C (second compound 0.1 µM, first compound 3.16 µM) was 13.2%, the viability, T/C (second compound 0.1 µM, first compound 10 µM) was 8.58% and the viability, T/C [6] was 128%. For the same compound, the viability, T/C [7] was 90%, the viability, T/C (second compound 0.316 µM, first compound 0.316 µM) was 53.2% and the viability, T/C (second compound 0.316 µM, first compound 1 µM) was 18.4%. It also gave a viability, T/C (second compound 0.316 µM, first compound 3.16 µM) of 10.1%, a viability, T/C (second compound 0.316 µM, first compound 10 µM) of 8.04% and a viability, T/C [8] of 123%. The viability, T/C [9] was 91.4%, the viability, T/C (second compound 1 µM, first compound 0.316 µM) was 34% and the viability, T/C (second compound 1 µM, first compound 1 µM) was 11.7%. The viability, T/C (second compound 1 µM, first compound 3.16 µM) was 8.66% and the viability, T/C (second compound 1 µM, first compound 10 µM) was 6.64%.

Cn1ncnc1[C@H]1c2n[nH]c(=O)c3cc(F)cc(c23)N[C@@H]1c1ccc(F)cc1 + Cc1c(S(C)(=O)=O)c(-c2cc(F)cc(N3CCN(c4ccc(NS(=O)(=O)c5ccc(NC(CCN6CCC(C(=O)OCCCP(=O)(O)O)CC6)CSc6ccccc6)c(S(=O)(=O)C(F)(F)F)c5)cc4)CC3)c2)c(-c2ccc(Cl)cc2)n1C(C)C was tested, and the IC50 [1] was greater than 0.1 µM, the IC50 [2] was greater than 0.1 µM and the IC50 [3] was greater than 0.1 µM. For the same compound, the IC50 (curve of first compound, second compound 3.16 µM) was greater than 0.1 µM, the IC50 (curve of first compound, second compound 10 µM) was 0.075 µM and the viability, T/C (second compound 0.1 µM, first compound 0.000316 µM) was 98.4%. It also gave a viability, T/C (second compound 0.1 µM, first compound 0.001 µM) of 85.5%, a viability, T/C (second compound 0.1 µM, first compound 0.00316 µM) of 101% and a viability, T/C (second compound 0.1 µM, first compound 0.01 µM) of 101%. It also gave a viability, T/C [4] of 108%, a viability, T/C [5] of 99.1% and a viability, T/C (second compound 0.316 µM, first compound 0.000316 µM) of 111%. It also gave a viability, T/C (second compound 0.316 µM, first compound 0.001 µM) of 95.5%, a viability, T/C (second compound 0.316 µM, first compound 0.00316 µM) of 114% and a viability, T/C (second compound 0.316 µM, first compound 0.01 µM) of 111%. For the same compound, the viability, T/C [6] was 98.3%, the viability, T/C [7] was 86.8% and the viability, T/C (second compound 1 µM, first compound 0.000316 µM) was 100%. For the same compound, the viability, T/C (second compound 1 µM, first compound 0.001 µM) was 103%, the viability, T/C (second compound 1 µM, first compound 0.00316 µM) was 103% and the viability, T/C (second compound 1 µM, first compound 0.01 µM) was 91.5%. The viability, T/C [8] was 70%, the viability, T/C [9] was 63.8% and the viability, T/C (second compound 3.16 µM, first compound 0.000316 µM) was 106%. The viability, T/C (second compound 3.16 µM, first compound 0.001 µM) was 99%, the viability, T/C (second compound 3.16 µM, first compound 0.00316 µM) was 113% and the viability, T/C (second compound 3.16 µM, first compound 0.01 µM) was 97.9%. It also gave a viability, T/C (second compound 3.16 µM, first compound 0.0316 µM) of 66%, a viability, T/C (second compound 3.16 µM, first compound 0.1 µM) of 56.1% and a viability, T/C (second compound 10 µM, first compound 0.000316 µM) of 95.4%. It also gave a viability, T/C (second compound 10 µM, first compound 0.001 µM) of 95.9%, a viability, T/C (second compound 10 µM, first compound 0.00316 µM) of 116% and a viability, T/C (second compound 10 µM, first compound 0.01 µM) of 96.1%. It also gave a viability, T/C (second compound 10 µM, first compound 0.0316 µM) of 70.5% and a viability, T/C (second compound 10 µM, first compound 0.1 µM) of 43.2%.

CNC(C)C(=O)NC1CN(S(=O)(=O)c2cccc(S(=O)(=O)N3CCC4CCC(C(=O)NC(c5ccccc5)c5ccccc5)N4C(=O)C(NC(=O)C(C)NC)C3)c2)CCC2CCC(C(=O)NC(c3ccccc3)c3ccccc3)N2C1=O (centres undefined) was tested, and the viability, T/C (compound 0.00316 µM) was 93.8% and 103%, the viability, T/C (compound 0.1 µM) was 104% [middle of 15 runs] and the IC50 (compound alone, run of 10/03/2022) was greater than 1 µM. For the same compound, the IC50 (curve of compound) was greater than 1 µM.
